From PMC1847690 (PLoS Pathogens, 2007)

What was measured:
[1] = target: PknK kinase domain (PknK1–289) (Mycobacterium tuberculosis, UniProt P9WI65)
UsfX (Rv3287c) = target: T1, UsfX (Rv3287c) (Mycobacterium tuberculosis, UniProt P9WGX7)
T1 construct: gene rsbW

[2] = target: PknE kinase domain (PknE1–286) (Mycobacterium tuberculosis, UniProt P9WI77)
[3] = target: PknB kinase domain (PknB1–308) (Mycobacterium tuberculosis, UniProt P9WI81)
[4] = target: PknA kinase domain (PknA1–337) (Mycobacterium tuberculosis, UniProt P9WI83)
[5] = target: PknD kinase domain (PknD1–378) (Mycobacterium tuberculosis, UniProt P9WI79)
Chain of PknD kinase domain (PknD1–378) (P9WI79 1-378): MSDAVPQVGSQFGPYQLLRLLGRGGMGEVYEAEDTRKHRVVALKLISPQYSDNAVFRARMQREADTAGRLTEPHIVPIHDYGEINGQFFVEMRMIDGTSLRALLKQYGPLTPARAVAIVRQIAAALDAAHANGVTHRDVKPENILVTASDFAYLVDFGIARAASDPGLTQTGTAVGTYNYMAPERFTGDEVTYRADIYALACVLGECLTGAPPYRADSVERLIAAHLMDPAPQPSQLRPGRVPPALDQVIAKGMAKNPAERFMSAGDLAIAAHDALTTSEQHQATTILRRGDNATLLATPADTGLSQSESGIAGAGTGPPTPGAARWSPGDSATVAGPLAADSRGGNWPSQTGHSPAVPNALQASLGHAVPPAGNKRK

T1 sequence (P9WGX7 whole entry): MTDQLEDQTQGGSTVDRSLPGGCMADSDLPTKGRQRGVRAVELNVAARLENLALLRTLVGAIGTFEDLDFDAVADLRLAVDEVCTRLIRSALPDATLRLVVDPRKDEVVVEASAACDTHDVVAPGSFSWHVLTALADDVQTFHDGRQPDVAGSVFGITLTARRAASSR
Chain of PknE kinase domain (PknE1–286) (P9WI77 1-286): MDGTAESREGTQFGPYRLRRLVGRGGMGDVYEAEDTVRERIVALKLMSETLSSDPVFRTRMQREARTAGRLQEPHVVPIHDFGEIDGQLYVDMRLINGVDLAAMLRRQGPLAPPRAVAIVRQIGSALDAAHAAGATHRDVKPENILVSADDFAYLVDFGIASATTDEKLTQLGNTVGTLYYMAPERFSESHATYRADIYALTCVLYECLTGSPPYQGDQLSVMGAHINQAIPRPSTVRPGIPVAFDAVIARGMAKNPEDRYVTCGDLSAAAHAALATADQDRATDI
Chain of PknK kinase domain (PknK1–289) (P9WI65 1-289): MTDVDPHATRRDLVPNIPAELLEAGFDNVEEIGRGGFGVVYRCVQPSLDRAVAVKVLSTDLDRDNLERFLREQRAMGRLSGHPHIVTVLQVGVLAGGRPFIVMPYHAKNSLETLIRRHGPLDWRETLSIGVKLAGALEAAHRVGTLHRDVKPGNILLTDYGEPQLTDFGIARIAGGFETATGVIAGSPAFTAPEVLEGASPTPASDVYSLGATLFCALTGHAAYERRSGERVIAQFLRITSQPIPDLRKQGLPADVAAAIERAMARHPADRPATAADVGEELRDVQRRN
Chain of PknB kinase domain (PknB1–308) (P9WI81 1-308): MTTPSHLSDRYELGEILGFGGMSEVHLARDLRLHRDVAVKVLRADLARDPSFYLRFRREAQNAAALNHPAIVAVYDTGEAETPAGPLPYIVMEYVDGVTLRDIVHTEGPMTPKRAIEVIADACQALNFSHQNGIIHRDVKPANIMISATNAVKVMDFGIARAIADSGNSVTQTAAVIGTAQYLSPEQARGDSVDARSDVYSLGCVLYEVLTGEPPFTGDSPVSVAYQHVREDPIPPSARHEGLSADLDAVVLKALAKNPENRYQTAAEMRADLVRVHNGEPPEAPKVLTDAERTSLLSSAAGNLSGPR
Chain of PknA kinase domain (PknA1–337) (P9WI83 1-337): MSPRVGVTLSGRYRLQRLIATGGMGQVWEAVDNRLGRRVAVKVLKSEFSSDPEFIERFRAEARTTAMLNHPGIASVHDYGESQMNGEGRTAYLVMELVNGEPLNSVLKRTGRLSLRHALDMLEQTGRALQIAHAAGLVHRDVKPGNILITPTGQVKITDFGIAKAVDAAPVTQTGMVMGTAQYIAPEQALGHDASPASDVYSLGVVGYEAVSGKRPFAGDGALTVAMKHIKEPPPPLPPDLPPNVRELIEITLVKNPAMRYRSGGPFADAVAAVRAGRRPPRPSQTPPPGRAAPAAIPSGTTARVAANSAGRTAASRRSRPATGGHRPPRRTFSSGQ

Row | Compound | [γ-32P]ATP transfer to MyBP, autoradiography [1] | phosphorylation of MyBP, autoradiography (UsfX (Rv3287c)) | [γ-32P]ATP transfer to Rv0516c, RshA, Rv1904 and RsfA, autoradiography [2] | [γ-32P]ATP transfer to Rv0516c and RshA, autoradiography [3] | [γ-32P]ATP transfer to MyBP and the MBP tag, autoradiography [4] | dose-dependent inhibition [5]
1 | Nc1ncnc2c1ncn2[C@@H]1O[C@H](COP(=O)(O)OP(=O)(O)OP(=O)(O)O)[C@@H](O)[C@H]1O [ATP] | At concentrations of each kinase domain equally active in phosphorylating the nonspecific substrate, MyBP | we incubated these proteins under conditions in which UsfX phosphorylated the model substrate | PknE weakly phosphorylated Rv1904 and RsfA (Rv1365c) | PknB and PknE also phosphorylated the anti–sigma factor RshA (Rv3221A) | The MBP tag was phosphorylated by the PknA, PknB, and PknE kinase domains | –
2 | O=C1c2ccccc2-c2n[nH]c3cccc1c23 [SP600125] | – | – | – | – | – | The SP600125 inhibitor blocked this Rv0516c phosphorylation (Figure 3B) in a dose-dependent manner
